Laboratory results as given in patent publication US20230113037A1 (Bayer Aktiengesellschaft, priority 2019, published 2023).
Where “and” joins values, the source holds several entries; their conditions need not be identical. Identical values can stand only once. Like-named read-outs stand apart in the source and are kept apart here.

Columns and labels:
AHR [1] = molecular target: T1, AHR (Homo sapiens, UniProt P35869); experiment: In vitro assay 1: antagonism in human cell line (AHR transactivation, firefly luciferase reporter, kynurenic acid prestimulated); type: cell-based; conditions: AHR Antagonism Human IC50 [M]
T1 construct: U87 MG glioblastoma cells (ATCC #HTB-14) endogenously expressing AHR; endogenous in cells; host or cells: U87 MG glioblastoma cells (ATCC #HTB-14)
T1 sequence (P35869 11-848): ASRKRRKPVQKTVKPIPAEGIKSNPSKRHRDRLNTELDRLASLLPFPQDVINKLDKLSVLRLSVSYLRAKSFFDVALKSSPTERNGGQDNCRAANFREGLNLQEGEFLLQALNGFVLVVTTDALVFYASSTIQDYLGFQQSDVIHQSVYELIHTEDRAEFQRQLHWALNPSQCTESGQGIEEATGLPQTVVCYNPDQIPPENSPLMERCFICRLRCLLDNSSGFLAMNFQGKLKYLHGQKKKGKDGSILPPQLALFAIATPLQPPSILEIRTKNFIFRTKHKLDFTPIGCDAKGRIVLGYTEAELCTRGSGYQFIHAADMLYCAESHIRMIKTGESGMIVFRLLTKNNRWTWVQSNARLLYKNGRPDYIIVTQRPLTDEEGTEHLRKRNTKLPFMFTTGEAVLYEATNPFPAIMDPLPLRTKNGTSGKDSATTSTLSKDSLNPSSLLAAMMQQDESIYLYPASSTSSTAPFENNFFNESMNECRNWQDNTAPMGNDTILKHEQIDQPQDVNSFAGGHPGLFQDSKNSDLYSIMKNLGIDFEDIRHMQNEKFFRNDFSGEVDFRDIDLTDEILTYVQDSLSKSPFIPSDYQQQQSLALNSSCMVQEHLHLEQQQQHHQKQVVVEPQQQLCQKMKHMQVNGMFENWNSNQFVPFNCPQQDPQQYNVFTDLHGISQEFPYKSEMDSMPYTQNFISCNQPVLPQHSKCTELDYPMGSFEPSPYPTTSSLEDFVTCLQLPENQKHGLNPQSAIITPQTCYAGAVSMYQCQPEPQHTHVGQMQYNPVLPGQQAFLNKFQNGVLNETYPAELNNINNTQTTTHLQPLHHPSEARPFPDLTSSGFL
How it was run: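 U87 MG glioblastoma cells with endogenous AHR, stably carrying a DRE-driven firefly luciferase reporter and constitutive Renilla reporter, prestimulated with kynurenic acid before compound addition. Firefly and Renilla read by dual luciferase; Renilla flags toxicity; normalized to controls (150 μM kynurenic acid + 5 μM staurosporine as full inhibition); repeat values averaged or median.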

AHR [2] = molecular target: T2, AHR (Mus musculus, UniProt P30561); experiment: In vitro assay 3: antagonism in mouse cell line (AHR transactivation, firefly luciferase reporter, kynurenic acid prestimulated); type: cell-based
T2 sequence (P30561 1-848 P471L/N533S/M589L): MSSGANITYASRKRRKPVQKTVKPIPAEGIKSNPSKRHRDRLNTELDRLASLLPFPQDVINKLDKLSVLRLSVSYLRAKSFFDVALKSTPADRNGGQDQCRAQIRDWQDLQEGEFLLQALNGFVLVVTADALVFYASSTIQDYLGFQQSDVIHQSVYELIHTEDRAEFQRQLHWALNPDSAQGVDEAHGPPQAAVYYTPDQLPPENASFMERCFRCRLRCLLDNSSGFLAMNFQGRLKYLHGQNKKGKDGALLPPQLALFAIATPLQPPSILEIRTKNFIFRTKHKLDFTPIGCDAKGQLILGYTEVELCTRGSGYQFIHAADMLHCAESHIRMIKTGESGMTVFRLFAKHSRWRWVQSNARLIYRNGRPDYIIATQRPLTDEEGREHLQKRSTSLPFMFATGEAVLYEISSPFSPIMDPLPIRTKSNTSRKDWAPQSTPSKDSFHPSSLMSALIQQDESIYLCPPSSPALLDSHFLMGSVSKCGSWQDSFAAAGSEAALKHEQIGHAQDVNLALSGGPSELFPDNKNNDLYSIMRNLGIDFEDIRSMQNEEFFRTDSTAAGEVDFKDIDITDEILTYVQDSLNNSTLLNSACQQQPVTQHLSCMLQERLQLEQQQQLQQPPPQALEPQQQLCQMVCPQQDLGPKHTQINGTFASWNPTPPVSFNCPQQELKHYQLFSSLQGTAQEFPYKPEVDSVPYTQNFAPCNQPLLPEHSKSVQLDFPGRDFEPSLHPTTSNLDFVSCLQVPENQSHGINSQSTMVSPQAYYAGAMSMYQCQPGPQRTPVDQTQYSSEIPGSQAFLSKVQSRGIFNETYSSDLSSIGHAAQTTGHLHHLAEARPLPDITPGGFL
How it was run: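 Mouse cells stably carrying a DRE-driven AHR-inducible firefly luciferase reporter were prestimulated with the endogenous agonist kynurenic acid before compound addition. Luciferase read by SteadyGlo; cells without kynurenic acid served as full-inhibition control, with normalization to positive and negative controls. Repeat tests reported as mean or median.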

[3] = mouse Hepa 1c1c7 cells, 200 μM kynurenic acid, 20 hours, read-out: AHR Antagonism Mouse IC50
[4] = Hepa 1c1c7 cells, 200 μM kynurenic acid, 20 hours, firefly luciferase reporter, read-out: AHR Antagonism Mouse IC50

Structure (SMILES)	IC50 (AHR [1]) [M]	IC50 (AHR [2]; [3])	IC50 (AHR [1]; firefly luciferase reporter) [M]	IC50 (AHR [2]; [4]) [nM]	IC50 (AHR [2]; read-out: AHR Antagonism Mouse IC50, mouse Hepa 1c1c7 cells, 200 μM kynurenic acid, 20 hours) [nM]
C[C@@H](Nc1nc2c(Br)cccc2c2nc(-c3cnn(C)c3)nn12)C(=O)N1C[C@H]2C[C@@H]1CO2 [Example 898, (2R)-2-{[7-bromo-2-(1-methyl-1H-pyrazol-4-yl)[1,2,4]triazolo[1,5-c]quinazolin-5-yl]amino}-1-[(1R,4R)-2-oxa-5-azabicyclo[2.2.1]heptan-5-yl]propan-1-one]			1.2e-07	25.2	
COc1ccc(-c2nc3c4ccccc4nc(N[C@H](C)C(=O)NCCN4CCN(C(=O)OC(C)(C)C)CC4)n3n2)cc1 [Example 884, tert-butyl 4-[2-({N-[2-(4-methoxyphenyl)[1,2,4]triazolo[1,5-c]quinazolin-5-yl]-D-alanyl}amino)ethyl]piperazine-1-carboxylate]			6.66e-09	8.31	
COc1cccc(-c2nc3c4ccc(F)cc4nc(N[C@@H]4CCNC4=O)n3n2)c1 [Example 152, (3R)-3-{[8-fluoro-2-(3-methoxyphenyl)[1,2,4]triazolo[1,5-c]quinazolin-5-yl]amino}pyrrolidin-2-one]	5.28e-08	353 nM			
COc1ccc(-c2nc3c4ccccc4nc(N[C@H]4CCCCNC4=O)n3n2)c(OC(F)(F)F)c1 [Example 509, (3S)-3-({2-[4-methoxy-2-(trifluoromethoxy)phenyl][1,2,4]triazolo[1,5-c]quinazolin-5-yl}amino)azepan-2-one]	1.03e-07	56.9 nM			
Cn1nccc1-c1nc2c3ccccc3nc(N[C@@H]3CCCCNC3=O)n2n1 [Example 65, (3R)-3-{[2-(1-methyl-1H-pyrazol-5-yl)[1,2,4]triazolo[1,5-c]quinazolin-5-yl]amino}azepan-2-one]	6.42e-09	3.17 nM			
O=C1NCCCC[C@H]1Nc1nc2ccccc2c2nc(-c3cncnc3)nn12 [Example 642, (3R)-3-{[2-(pyrimidin-5-yl)[1,2,4]triazolo[1,5-c]quinazolin-5-yl]amino}azepan-2-one]	3.34e-07	683 nM			
C[S+]([O-])c1ccccc1-c1nc2c3ccccc3nc(N[C@@H]3CCCCNC3=O)n2n1 (mixture of isomers) [Example 648, (3R)-3-[(2-{2-[methanesulfinyl]phenyl}[1,2,4]triazolo[1,5-c]quinazolin-5-yl)amino]azepan-2-one]	6.89e-09	3.63 nM			
Cc1nn(C)cc1-c1nc2c3cccc(Cl)c3nc(N[C@@H]3CNCCNC3=O)n2n1 [Example 951, (6R)-6-{[7-chloro-2-(1,3-dimethyl-1H-pyrazol-4-yl)[1,2,4]triazolo[1,5-c]quinazolin-5-yl]amino}-1,4-diazepan-5-one]			3.22e-09	5.44	
CCCNC(=O)[C@@H](C)Nc1nc2ccccc2c2nc(-c3ccccc3OC(F)(F)F)nn12 [Example 465, N-propyl-N^2-{2-[2-(trifluoromethoxy)phenyl][1,2,4]triazolo[1,5-c]quinazolin-5-yl}-D-alaninamide]	1.34e-08	3.87 nM			
CCCC[C@H](Nc1nc2ccccc2c2nc(-c3cccc(OC(F)(F)F)c3)nn12)C(N)=O (racemic) [Example 322, N^2-{2-[3-(trifluoromethoxy)phenyl][1,2,4]triazolo[1,5-c]quinazolin-5-yl}-norleucinamide]	6.42e-08				35.7

Now from value to molecule, other results behind:

IC50 (AHR [1]) [M]	IC50 (AHR [2]; [3])	IC50 (AHR [1]; firefly luciferase reporter) [M]	IC50 (AHR [2]; [4]) [nM]	Structure (SMILES)	IC50 (AHR [2]; read-out: AHR Antagonism Mouse IC50, mouse Hepa 1c1c7 cells, 200 μM kynurenic acid, 20 hours) [nM]
2.09e-08	23.8 nM			O=C1NCCCC[C@H]1Nc1nc2ccccc2c2nc(-c3ccc(O)cc3)nn12 [Example 614, (3R)-3-{[2-(4-hydroxyphenyl)[1,2,4]triazolo[1,5-c]quinazolin-5-yl]amino}azepan-2-one]	
1.84e-08	1060 nM			CC(C)c1cccc2c1nc(N[C@@H]1CCCCNC1=O)n1nc(-c3cnn(C)c3)nc21 [Example 588, (3R)-3-{[2-(1-methyl-1H-pyrazol-4-yl)-7-(propan-2-yl)[1,2,4]triazolo[1,5-c]quinazolin-5-yl]amino}azepan-2-one]	
1.36e-07	111 nM			O=C1NCCC[C@H]1Nc1nc2ccccc2c2nc(-c3cccc(OC(F)(F)F)c3)nn12 [Example 311, (3R)-3-({2-[3-(trifluoromethoxy)phenyl][1,2,4]triazolo[1,5-c]quinazolin-5-yl}amino)piperidin-2-one]	
1.29e-05	> 20000 nM and 19700 nM			Cn1cc(-c2nc3c4ccccc4nc(NC4CCCNC4=O)n3n2)cn1 (single isomer, unassigned) [Example 21, 3-{[2-(1-methyl-1H-pyrazol-4-yl)[1,2,4]triazolo[1,5-c]quinazolin-5-yl]amino}piperidin-2-one]	
		2.16e-08	13.7	C[C@@H]1COCCN1C(=O)[C@@H](C)Nc1nc2c(Br)cccc2c2nc(-c3cnn(C)c3)nn12 [Example 912, (2R)-2-{[7-bromo-2-(1-methyl-1H-pyrazol-4-yl)[1,2,4]triazolo[1,5-c]quinazolin-5-yl]amino}-1-[(3R)-3-methylmorpholin-4-yl]propan-1-one]	
> 2e-05	29.1 nM			CC[C@H](Nc1nc2ccccc2c2nc(-c3ccc(Cl)cc3OC(F)(F)F)nn12)C(N)=O [Example 522, (2S)-2-({2-[4-chloro-2-(trifluoromethoxy)phenyl][1,2,4]triazolo[1,5-c]quinazolin-5-yl}amino)butanamide]	
4.84e-09	1.8 nM			O=C1NCCNC[C@H]1Nc1nc2c(C(F)(F)F)cccc2c2nc(-c3ccc(Cl)cc3OC(F)(F)F)nn12 [Example 710, (6R)-6-({2-[4-chloro-2-(trifluoromethoxy)phenyl]-7-(trifluoromethyl)[1,2,4]triazolo[1,5-c]quinazolin-5-yl}amino)-1,4-diazepan-5-one]	
1.29e-09	0.784 nM			CC(C)Oc1ccc(-c2nc3c4ccccc4nc(N[C@@H]4CCCCNC4=O)n3n2)cc1F [Example 632, (3R)-3-[(2-{3-fluoro-4-[(propan-2-yl)oxy]phenyl}[1,2,4]triazolo[1,5-c]quinazolin-5-yl)amino]azepan-2-one]	
3.24e-08	22.3 nM			O=C1NCCCC[C@H]1Nc1nc2cccc(C3CC3)c2c2nc(-c3cccc(F)c3)nn12 [Example 175, (3R)-3-{[10-cyclopropyl-2-(3-fluorophenyl)[1,2,4]triazolo[1,5-c]quinazolin-5-yl]amino}azepan-2-one]	
2.05e-08	87.2 nM			O=C1NCCCC[C@H]1Nc1nc2c(Cl)cccc2c2nc(-c3ccncc3)nn12 [Example 193, (3R)-3-{[7-Chloro-2-(pyridin-4-yl)[1,2,4]triazolo[1,5-c]quinazolin-5-yl]amino}azepan-2-one]	
7.33e-10	0.517 nM			O=C1NCCCC[C@H]1Nc1nc2ccccc2c2nc(-c3ccsc3)nn12 [Example 340, (3R)-3-{[2-(thiophen-3-yl)[1,2,4]triazolo[1,5-c]quinazolin-5-yl]amino}azepan-2-one]	
